Key:
[1] = test system: E. coli 683/17; assay: MIC for metabolic activity of preformed biofilm (MTT reduction assay); assay type: cell-based, Escherichia coli; details: for MICMPB80: ≥80% inhibition, 20 h with substance
Procedure: (§1) Ten concentrations of NAC, RLs, and UA were tested to determine the minimum inhibitory concentration for planktonic growth, and subsequently, the six highest concentrations were applied on preformed biofilms to evaluate the biofilm eradication ability of the compounds. MIC was defined as the lowest substance concentration able to inhibit at least 80% of microbial growth (MICPC80 for planktonic cells, MICBC80 for further growth of biofilm cells), inhibit 80% of metabolic activity (MICBM80 for biofilm metabolic activity, MICMPB80 for metabolic activity of preformed biofilm), prevent biofilm formation by at least 80% (MICBF80 for biofilm formation), or reduce a preformed biofilm by at least 80% (MICBR80 for biofilm reduction). The results of MICs are summarized in Table 1 (planktonic cells) and Table 2 (biofilm-associated cells).
(§2) The determination of MICs was performed according to Chlumsky et al.. Briefly, 96-well flat-bottomed microtiter plates were inoculated with 75 µL (for biofilm formation) or 100 µL (for preformed biofilm) of bacterial suspension (A625nm 0.08 to 0.1) in technical triplicates and were then carefully mixed with the dilution series of the test substances (24 h cultivation at 25 °C for S. Infantis, 37 °C for other strains) or were directly cultivated to preform biofilms (18 h). For a positive control of bacterial growth, the inoculum was mixed with a pure sterile medium. Furthermore, the sterile medium was included in the plate as a marker of potential microbial contamination. To evaluate planktonic cells growth (MICPC80) and further growth of biofilm cells (MICBC80), the optical density of the content of the microtiter plates was measured spectrophotometrically at 625 nm before and after 24 h (for biofilm formation) of cultivation or before and after additional 20 h incubation with the tested compound (for preformed biofilm). The difference of A625nm was considered as a measure of the ability of cells to grow in the presence of the tested substances. To evaluate the inhibition of biofilm formation (MICBF80) and reduction in preformed biofilms (MICBR80), biomass was quantified using crystal violet staining, and its metabolic activity (MICBM80 and MICMPB80) was estimated by using the MTT (thiazyl tetrazolium bromide, Sigma-Aldrich, USA) reduction assay, both measured spectrophotometrically at 595 nm.
(§3) All inhibitions were calculated using the formula of Chlumsky et al. below (Equation (1)):(1) A625(595)nm inhibition (%)=A625(595)nm (control) – A625(595)nm(natural substance)/A625(595)nm (control)× 100 where A625(595)nm (control) is the absorbance of bacterial suspension/biofilm itself, and A625(595)nm(natural substance) is the absorbance of the bacterial suspension/biofilm with the added natural substance (NAC, RLs, and UA).
(§4) When the minimum inhibitory concentration could not be determined, the MIC was established as >the highest tested concentration for NAC, RLs, and UA.

[2] = test system: E. coli 693/17; assay: as above; assay type: cell-based, Escherichia coli
Procedure: as §1, §2, §3, §4

[3] = test system: L. monocytogenes 164; assay: CLSM analysis, biofilm prevention; assay type: cell-based, Listeria monocytogenes; details: for Thickness (µm) MICBM80 / Thickness (µm) subCBM80: 24 h exposure; for Thickness (µm) MICBM80: substance at its MICBM80, mean ± SD; for Thickness (µm) subCBM80: substance at subinhibitory concentration, mean ± SD
Procedure: (§5) Biofilm prevention and removal analyses were performed using previously determined minimum inhibitory and subinhibitory concentrations for metabolic activity (MICBM80, subCBM80; MICMPB80, subCMPB80) of NAC, RLs, and UA specific for each tested strain. Selected concentrations were used to evaluate the inhibition of biofilm formation (biofilm prevention) and the reduction in previously formed biofilms (biofilm removal) for the same set of microorganisms, with the exception of S. Infantis, which was excluded from the analysis due to its inability to form biofilm in the selected microtiter plate. Biofilm prevention and removal were observed using CLSM with specific staining to distinguish between live and membrane-compromised cells. Images were analyzed to evaluate (i). the total volume of the biomass, (ii). ratios of live and membrane-compromised cells, and (iii). to calculate biofilm volume reduction for individual organisms after the respective treatment types. The total biofilm volume was normalized by the area of the well and expressed as an average biofilm thickness. Complete data are provided in Supplementary Materials (Tables S1–S8).
(§6) For both inhibition and reduction of biofilms, overnight cultures from BHI were diluted in TSB + 1% Glc to reach an absorbance of 0.08 to 0.1 at 625 nm. The inoculum (150 µL) was transferred into wells of the 96-well flat-bottomed Ibidiμ-Plate (Ibidi, Gräfelfing, Germany) and mixed with 150 µL of each of the three tested substances in technical quadruplicates, followed by incubation at 37 °C for 24 h. Simultaneously, the prepared bacterial suspensions were inoculated to an additional microtiter plate (200 µL) and allowed to form biofilm overnight (18 h at 37 °C). After the incubation, the content of the well was drained off, and 200 µL of each of the three tested substances was added to the plate, which was then incubated for an additional 20 h. The used concentrations of the substances represented the subinhibitory and minimum inhibitory concentrations for metabolic activity (subCBM80, MICBM80; subCMPB80, MICMPB80). Both setups contained a positive control of the bacterial growth (inoculum mixed with sterile TSB + 1% Glc medium) and a control monitoring microbial contamination (sterile medium). Non-treated wells were used as a positive control for comparison between non-treated and treated biofilm mass.
(§7) Prior to the imaging, the wells were stained with the LIVE/DEAD® BacLight™ Bacterial Viability Kit (Thermo Fisher Scientific, MA, USA) following the manufacturer’s guidelines and Drago et al.. Briefly, equal volumes of SYTO® 9 and propidium iodide were combined with the sterile distilled water to reach a final concentration of […]. The biofilm mass was stained using 300 µL of the staining solution per well followed by incubation at 37 °C in the dark for 15 min. Stained wells were washed once with sterile distilled water, which was then added to each well (300 µL). Images were acquired with an inverted Leica SP5 CLSM using a 1.25× dry objective (WD 3.7 mm, Z-resolution 27 µm, up to 24 Z-stacks per well) to visualize an entire well. Samples were kept at the cultivation conditions (37 °C, 5% CO2, 90% humidity) with an OkoLabs stage top environmental chamber (Oko Labs, PA, USA). Fluorophore excitation lasers and emission bandwidths were as follows: SYTO® 9 (ex/em 485/498 nm) 488 nm excitation, 495 to 550 nm emission collection; propidium iodide (ex/em 535/617 nm) 561 nm excitation, 595 to 650 nm emission collection. The laser beam scanned the visual field at a frequency of 600 Hz. The wells were captured in snapshots of 1024 × 1024 pixels representing the area of 153.76 mm^2.
(§8) All collected images were statistically evaluated to quantify biovolume utilizing the surface estimation procedure described in Parker et al.. […]

[4] = test system: L. monocytogenes 149; assay: CLSM analysis, biofilm prevention; assay type: cell-based, Listeria monocytogenes; details: for proportion of membrane-compromised cells: 24 h; for Thickness (µm) MICBM80 / Thickness (µm) subCBM80: 24 h exposure; for Thickness (µm) MICBM80: substance at its MICBM80, mean ± SD; for Thickness (µm) subCBM80: substance at subinhibitory concentration, mean ± SD
Procedure: as §5, §6, §7, §8

[5] = test system: S. Enteritidis ATCC 13076; assay: MIC for further growth of biofilm cells, preformed biofilm (A625nm); assay type: cell-based, Salmonella enterica Enteritidis; details: for MICBC80: ≥80% inhibition, 18 h preformed biofilm, 20 h with substance
Procedure: as §1
The determination of MICs was performed according to Chlumsky et al.. […] To evaluate planktonic cells growth (MICPC80) and further growth of biofilm cells (MICBC80), the optical density of the content of the microtiter plates was measured spectrophotometrically at 625 nm before and after 24 h (for biofilm formation) of cultivation or before and after additional 20 h incubation with the tested compound (for preformed biofilm). […] To evaluate the inhibition of biofilm formation (MICBF80) and reduction in preformed biofilms (MICBR80), biomass was quantified using crystal violet staining, and its metabolic activity (MICBM80 and MICMPB80) was estimated by using the MTT (thiazyl tetrazolium bromide, Sigma-Aldrich, USA) reduction assay, both measured spectrophotometrically at 595 nm.
as §3, with “UA). […]” for “UA).”

| Compound | MICMPB80 [1] | MICMPB80 ([2]; ≥80% inhibition, 20 h with substance) | proportion of membrane-compromised cells, increase ([3]; 24 h, MIC) | Thickness (µm) MICBM80 [3] [µm] | Thickness (µm) subCBM80 [3] [µm] | proportion of membrane-compromised cells ([4]; MIC and subinhibitory concentration) | Thickness (µm) MICBM80 [4] [µm] | Thickness (µm) subCBM80 [4] [µm] | MICBC80 [5] [µg/mL] | maximal achieved inhibition (MICMPB80 not reached) ([1]; within tested concentrations) [%] | maximal achieved inhibition (MICMPB80 not reached) ([2]; within tested concentrations) [%] | proportion of membrane-compromised cells ([4]; MIC) | maximal achieved inhibition (MICBC80 not reached) ([5]; within tested concentrations) [%] |
| --- | --- | --- | --- | --- | --- | --- | --- | --- | --- | --- | --- | --- | --- |
| CC(=O)N[C@@H](CS)C(=O)O [NAC, N-Acetyl-L-cysteine] | 12,500 µg/mL | 12,500 µg/mL | about 45% | 158 ± 93.2 | 288 ± 40.6 | up to 25% | 86.5 ± 2.6 | 238 ± 32 | 6250 | – | – | – | – |
| CC(=O)c1c(O)c(C)c(O)c2c1OC1=CC(=O)C(C(C)=O)C(=O)C12C (single isomer, unassigned; (+)) [UA, (+)-usnic acid] | > 31.3 µg/mL | – | – | 325 ± 70.5 | 417 ± 40.4 | – | 175 ± 79.4 | 268 ± 68.9 | > 31.3 | 45 | 20 | up to 15% | 51 |

Source: publication PMC8583417, “Evaluation of the Antimicrobial Efficacy of N-Acetyl-L-Cysteine, Rhamnolipids, and Usnic Acid—Novel Approaches to Fight Food-Borne Pathogens” (International Journal of Molecular Sciences, 2021)
